Data set [1] has as its system HIV-1 (NL4-3balenv). Nature of the data set: HIV-1 transfer assay: virus-pulsed IM-MDDC co-cultured with autologous CD4+ T cells, p24 ELISA. The class given is cell-based, human immunodeficiency virus type 1. Here is the method:
HIV-1 transfer assay: IM-MDDC (10^5 cells in 100 μl) transfected either with the above listed siRNAs or pre-incubated with polyclonal anti-DCIR (10 μg/1.5×10^5 cells) were exposed to HIV-1 (10 ng of p24) for 60 min at 37° C. Next, the virus-cell mixture was washed three times with PBS to remove unadsorbed virions. In some experiments, cells were also treated with the anti-HIV-1 drug EFV (efavirenz) (50 μM). Finally, IM-MDDC were co-cultured with autologous activated CD4^+ T lymphocytes at a 1:3 ratio in complete RPMI-1640 medium supplemented with IL-2 (30 U/ml) in 96-well plates in a final volume of 200 μl. At day 2, virus production was estimated by measuring p24 levels in cell-free culture supernatants by ELISA.
(§1) We next evaluated the transfer of HIV to autologous CD4^+ T cells. To that effect, IM-MDDC (1×10^6 cells) were treated with Oligofectamine and then either left untreated (control) or exposed to a non-specific siRNA and a DCIR-specific siRNA. Next, cells (1×10^5) were pulsed with NL4-3balenv (10 ng of p24) for 60 min at 37° C. After three washes with PBS to eliminate unbound virus, IM-MDDC were co-cultured with autologous CD4^+ T cells at a 1:3 ratio. Cell-free culture supernatants were collected at day 2 following initiation of the co-culture and analyzed for the p24 content. Data shown in FIG. 3 represent the means±SD of triplicate samples from three combined independent experiments. Asterisks denote statistically significant data (***, P<0.001).
as §1, with “In FIG. 4A,” for “We next evaluated the transfer of HIV to autologous CD4^+ T cells. To that effect,”, “were either left untreated or treated with EFV. IM-MDDC (2×10^5 cells)” for “(1×10^5)”, “(20” for “(10”, “shown” for “shown in FIG. 3”, “two different donors and are representative of four separate donors.” for “three combined independent experiments.”, “(*, P<0.05, **, P<0.01).” for “(***, P<0.001).”
In FIG. 5 left panels, IM-MDDC (2×10^5 cells) were initially treated with either a control Ab or a polyclonal anti-DCIR (10 μg per 1.5×10^5 cells). Next, cells were extensively washed to eliminate excess Ab and pulsed with NL4-3balenv (20 ng of p24) for 2 hrs at 37° C. […] Cell-free culture supernatants were collected at the indicated time points and analyzed for the p24 content. […] Cell-free culture supernatants were collected at day 2 following initiation of the co-culture and analyzed for the p24 content. […]
For orientation: An ELISA detects its analyte on a solid surface through an enzyme-linked reagent.

Data set [2] has as its system DCIR. Nature of the data set: DCIR surface expression in siRNA-transfected IM-MDDC by flow cytometry. The class given is cell-based, human. Particulars: 40 hrs after siRNA transfection, FIG. 2. Here is the method:
Flow cytometric analysis: Cell surface expression of DCIR was monitored by flow cytometric analysis with a flow cytometry apparatus (Epics ELITE ESP, Coulter Electronics, Burlington, ON). Before staining, cells were incubated for 15 min at 4° C. with 10% pooled human sera to block non-specific binding sites and washed once with phosphate buffered saline (PBS) supplemented with 0.5% bovine serum albumin (BSA). Next, cells were incubated for 45 min at 4° C. with anti-DCIR (0.25 μg) monoclonal Ab and then washed twice with PBS and 0.5% BSA. Non-specific staining was determined by using an isotype-matched irrelevant control Ab. After two final washes with PBS, cells were fixed in 2% paraformaldehyde and analyzed.
Gene silencing of DCIR with siRNAs: Small interfering RNAs (siRNAs) either specific (i.e. 5′-ATTTAGGTGGTCTGTCA-3′; [SEQ ID NO:11]) or non-specific for DCIR (i.e. 5′-[…]-3′; [SEQ ID NO:45]) were obtained from Qiagen and dissolved in an appropriate buffer. The studied siRNAs were subsequently tested in IM-MDDC as previously described 2. Control cells were treated with either Oligofectamine alone or Oligofectamine and non-specific siRNAs. […] The efficiency of DCIR silencing with the tested siRNA was monitored by flow cytometry.
We thus employed RNA interference to reduce DCIR expression in IM-MDDC and analyzed the possible effect on HIV-1 transfer. […]
Background: A flow cytometer gives signals particle by particle.

Data set [3] deals with HIV-1 (NL4-3balenv). Nature of the data set: HIV-1 infection of IM-MDDC: virus production by p24 ELISA. It is filed as cell-based, human immunodeficiency virus type 1. Particulars: siRNA-transfected IM-MDDC pulsed with NL4-3balenv 20 ng p24 for 2 hrs; FIG. 4C. As to the method:
HIV-1 infection of IM-MDDC: IM-MDDC (2×10^5 cells in a final volume of 100 μl) either transfected with the studied siRNAs or pre-incubated with the above mentioned polyclonal anti-DCIR were exposed to HIV-1 (20 ng of p24) for 2 hr at 37° C. After three washes with PBS, cells were maintained in complete RPMI-1640 culture medium supplemented with GM-CSF (1,000 U/ml) and IL-4 (200 U/ml) in 96-well plates in a final volume of 200 μl. Every 3 days and for a period lasting 9 days, half of the medium was removed and kept frozen at −20° C. until assayed. Virus production was estimated by measuring p24 levels in culture supernatants by ELISA. […]
In FIG. 4C, IM-MDDC were treated with Oligofectamine and then either left untreated (control) or exposed to a non-specific siRNA and a DCIR-specific siRNA. […] Cell-free culture supernatants were collected at the indicated time points and analyzed for the p24 content. […]
In FIG. 5 left panels, IM-MDDC (2×10^5 cells) were initially treated with either a control Ab or a polyclonal anti-DCIR (10 μg per 1.5×10^5 cells). […] Cell-free culture supernatants were collected at the indicated time points and analyzed for the p24 content. […] Cell-free culture supernatants were collected at day 2 following initiation of the co-culture and analyzed for the p24 content. […]

Data set [4] has as its system DC-SIGN. Nature of the data set: DC-SIGN expression in IM-MDDC after DCIR-specific siRNA. It is filed as cell-based, human. Conditions: IM-MDDC transfected with siRNA; data not shown. The text has this:
(§2) A ˜30% decrease in surface expression of DCIR in IM-MDDC was observed following the use of DCIR-specific siRNA (FIG. 2).

The test system of data set [5] is IM-MDDC. It is filed as cell-based, human.
Text: as §2

`O=C1Nc2ccc(Cl)cc2[C@@](C#CC2CC2)(C(F)(F)F)O1` [EFV, efavirenz, reference compound]: in data set [1] (EFV 50 μM added to IM-MDDC, FIG. 4A), the “effect on HIV-1 propagation (virus transfer)” value was “limited effect”.
In the case of “DCIR-specific siRNA: siRNA specific for DCIR, 5′-ATTTAGGTGGTCTGTCA-3′ [SEQ ID NO:11], obtained from Qiagen (chemistry not given here)”, the “decrease in surface expression of DCIR in IM-MDDC” value in data set [2] is on record as around 30%. Also, the “de novo virus production in IM-MDDC (p24)” value in data set [3] is listed as “decrease”. Besides, in data set [4], the DC-SIGN expression entry was “not affected”. Further, in data set [1] (cells treated with EFV (50 μM), NL4-3balenv 20 ng p24, co-culture day 2, FIG. 4A), the “reduction in virus transfer (average diminution)” value came out at 40%. In data set [1] (in absence of EFV, NL4-3balenv 20 ng p24, co-culture day 2, FIG. 4A), the “reduction in virus transfer (average decrease)” value came out at 30%. For the same compound, the “transfer of HIV-1 from IM-MDDC to autologous CD4+ T cells (p24 content)” value in data set [1] (siRNA-transfected IM-MDDC pulsed with NL4-3balenv 10 ng p24 for 60 min, co-culture 1:3, day 2, FIG. 3) is recorded as “reduced significantly”. The cells viability entry in data set [5] is reported as “minimally affected”.
